The results in this text go back to patent publication US20200247800A1, “SUBSTITUTED BICYCLIC HETEROCYCLIC COMPOUNDS AS NADPH OXIDASE INHIBITORS” (Glenmark Pharmaceuticals S.A., priority 2017, published 2020).

This assay concerns the target T1, human NOX4 (Homo sapiens, UniProt Q9NPH5).
T1 construct: expressed in transfected cells; membrane fraction used
T1 sequence (Q9NPH5 1-578): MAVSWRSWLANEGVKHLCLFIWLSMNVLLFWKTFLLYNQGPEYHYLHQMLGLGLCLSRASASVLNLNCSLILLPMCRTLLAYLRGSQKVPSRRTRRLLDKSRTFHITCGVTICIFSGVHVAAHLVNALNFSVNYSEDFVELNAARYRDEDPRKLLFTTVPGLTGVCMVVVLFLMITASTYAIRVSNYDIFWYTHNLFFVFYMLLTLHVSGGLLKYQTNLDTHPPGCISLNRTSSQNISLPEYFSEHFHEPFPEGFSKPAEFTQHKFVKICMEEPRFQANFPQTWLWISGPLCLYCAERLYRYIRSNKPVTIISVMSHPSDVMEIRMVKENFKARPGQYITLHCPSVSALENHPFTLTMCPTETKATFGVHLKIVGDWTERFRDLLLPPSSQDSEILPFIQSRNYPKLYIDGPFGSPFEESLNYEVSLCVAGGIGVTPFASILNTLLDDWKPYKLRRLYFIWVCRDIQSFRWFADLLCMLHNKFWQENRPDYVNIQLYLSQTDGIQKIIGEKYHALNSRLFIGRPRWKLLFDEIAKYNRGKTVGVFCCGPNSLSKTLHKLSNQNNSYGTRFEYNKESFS
T1 sequence (P13498 1-195 partner): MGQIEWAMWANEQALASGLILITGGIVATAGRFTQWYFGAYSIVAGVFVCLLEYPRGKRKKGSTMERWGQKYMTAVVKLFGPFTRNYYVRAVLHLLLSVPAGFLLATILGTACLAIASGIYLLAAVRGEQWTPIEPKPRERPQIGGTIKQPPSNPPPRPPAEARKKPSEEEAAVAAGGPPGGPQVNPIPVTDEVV
The assay is described as follows: Cell free membrane based in vitro NOX4 assay: H2O2 production by membranes expressing human NOX4, measured with Amplex Red. The assay is classed as biochemical. To be noted: for inhibition at 1 µM: 1.0 μM compound, read-out: Percentage inhibition at 1.0 μM; for inhibition at 10 µM: 10.0 μM compound, read-out: Percentage inhibition at 10.0 μM; for pIC50: class symbols. As to the method: The inhibition of NOX4 activity was measured as inhibition of formation of reactive oxygen species (ROS) from oxygen in cell free assays. […] A cell free membrane based in vitro assay was developed by preparing membranes from cells stably overexpressing human NOX4. hNOX4/HEK stable cell line was generated in-house for this purpose. Membranes from stably transfected cells overexpressing human NOX4 were prepared by homogenizing the cells in buffer (20 mM HEPES, 1 mM EGTA, 0.5 mM DTT, 0.5% protease inhibitor cocktail, 1 mM PMSF, pH 7.6), followed by centrifugation at 160000 g for 30 min. Membrane fraction (pellet) was resuspended in storage buffer (homogenization buffer with 10% glycerol and 100 mM NaCl) and stored at −80° C. Protein concentration was determined by Bradford reagent. H202 production by membranes expressing human NOX4 was measured using Amplex Red (Invitrogen) by following a slightly modified version of the manufacturer's instruction manual. Briefly, membranes were incubated in assay buffer (25 mM HEPES, 0.12 M NaCl, 3 mM KCl, 1 mM MgCl2, pH 7.4) with Horse Radish Peroxidase (HRP) and Amplex Red. Reaction was started by addition of […] to the membrane mix. Antagonism of NOX4 inhibitors was measured by incubating the membrane with increasing concentrations of the inhibitors for 20 min on a plate shaker prior to addition of NADPH. H2O2 levels were measured for 10 min in a BMG Fluostar microplate reader with excitation and emission wavelengths of 544 nm and 590 nm respectively. Concentration response curves were plotted as a % of maximal response obtained in the absence of the inhibitor. IC50 value was calculated from concentration response curve by nonlinear regression analysis using GraphPad PRISM software.

pIC50: −log10 of the molar value.

The inhibition is the relative decrease from the control value, in per cent. A word on the pIC50: it is the IC50 on a negative log10 scale, so that one unit is a factor of ten. `COc1ccc(Cl)c(-c2[nH]c3c(c(C)nn3C)c(=O)c2O)c1` [Example 23, 6-(2-Chloro-5-methoxyphenyl)-5-hydroxy-1,3-dimethyl-1,7-dihydro-4H-pyrazolo[3,4-b]pyridin-4-one]: the inhibition at 1 µM was found to be 100%, the inhibition at 10 µM stood at 99.3% and the pIC50 was 7.00 to 7.30.
Take `Cc1nn(C)c2[nH]c(-c3ccc(Cl)c(C(F)(F)F)c3)c(O)c(=O)c12` [Example 24, 6-[3-Chloro-3-(trifluoromethyl)phenyl]-5-hydroxy-1,3-dimethyl-1,7-dihydro-4H-pyrazolo[3,4-b]pyridin-4-one]: the inhibition at 1 µM was found to be 88.9% and the pIC50 was less than 6.82.
Consider `Cc1nn(C)c2[nH]c(-c3ccc(Cl)cc3F)c(O)c(=O)c12` [Example 25, 6-(4-Chloro-2-fluorophenyl)-5-hydroxy-1,3-dimethyl-1,7-dihydro-4H-pyrazolo[3,4-b]pyridin-4-one], for which the inhibition at 1 µM is 90.7% and the inhibition at 10 µM was determined as 78.3%.
With `CCn1nc(C)c2c(=O)c(O)c(-c3ccccc3Cl)[nH]c21` [Example 26, 6-(2-Chlorophenyl)-1-ethyl-5-hydroxy-3-methyl-1,7-dihydro-4H-pyrazolo[3,4-b]pyridin-4-one], the inhibition at 1 µM was found to be 89.7%, the inhibition at 10 µM was determined as 64.5% and the negative logarithm of the IC50 (pIC50) was 7.00 to 7.30.
Turning to `Cc1nn(CC(F)(F)F)c2[nH]c(-c3ccccc3Cl)c(O)c(=O)c12` [Example 27, 6-(2-Chlorophenyl)-5-hydroxy-3-methyl-1-(2,2,2-trifluoroethyl)-1,7-dihydro-4H-pyrazolo[3,4-b]pyridin-4-one], the inhibition at 1 µM worked out at 98.2%, the inhibition at 10 µM stood at 100% and the negative logarithm of the IC50 (pIC50) was 6.82 to 7.00.
As for `Cc1nn(C(C)C)c2[nH]c(-c3ccccc3Cl)c(O)c(=O)c12` [Example 28, 6-(2-Chlorophenyl)-5-hydroxy-3-methyl-1-(propan-2-yl)-1,7-dihydro-4H-pyrazolo[3,4-b]pyridin-4-one], the inhibition at 1 µM worked out at 82.1%, the inhibition at 10 µM was 58.9% and the negative logarithm of the IC50 (pIC50) was 6.82 to 7.00.
Regarding `COc1ccc(-n2nc(C)c3c(=O)c(O)c(-c4c(F)cccc4F)[nH]c32)cc1` [Example 29, 6-(2,6-Difluorophenyl)-5-hydroxy-1-(4-methoxyphenyl)-3-methyl-1,7-dihydro-4H-pyrazolo[3,4-b]pyridin-4-one], the inhibition at 1 µM is 89.4%, the inhibition at 10 µM worked out at 95.6% and the pIC50 is 6.82 to 7.00.
On the same counts, the results for `Cc1nn(-c2ccccn2)c2[nH]c(-c3ccccc3Cl)c(O)c(=O)c12` [Example 30, 6-(2-Chlorophenyl)-5-hydroxy-3-methyl-1-(pyridin-2-yl)-1,7-dihydro-4H-pyrazolo[3,4-b]pyridin-4-one] are 64.1%, 77.3% and less than 6.82.
On to `Cc1nn(-c2ccc(F)c(F)c2)c2[nH]c(-c3ccccc3Cl)c(O)c(=O)c12` [Example 31, 6-(2-Chlorophenyl)-1-(3,4-difluorophenyl)-5-hydroxy-3-methyl-1,7-dihydro-4H-pyrazolo[3,4-b]pyridin-4-one], for which the inhibition at 1 µM is 100%, the inhibition at 10 µM is 100% and the negative logarithm of the IC50 (pIC50) is greater than 7.30.
In the case of `Cc1nn(-c2ccc(F)cc2)c2[nH]c(-c3c(F)cccc3F)c(O)c(=O)c12` [Example 32, 6-(2,6-Difluorophenyl)-1-(4-fluorophenyl)-5-hydroxy-3-methyl-1,7-dihydro-4H-pyrazolo[3,4-b]pyridin-4-one], the inhibition at 1 µM was 100%, the inhibition at 10 µM was found to be 100% and the pIC50 is greater than 7.30.
As for `Cc1nn(-c2ccc(F)cc2)c2[nH]c(-c3ccccc3Cl)c(O)c(=O)c12` [Example 33, 6-(2-Chlorophenyl)-1-(4-fluorophenyl)-5-hydroxy-3-methyl-1,7-dihydro-4H-pyrazolo[3,4-b]pyridin-4-one], the inhibition at 1 µM was 100%, the inhibition at 10 µM came out at 100% and the negative logarithm of the IC50 (pIC50) is greater than 7.30.
Take `Cc1nn(-c2cccc(F)c2)c2[nH]c(-c3ccccc3Cl)c(O)c(=O)c12` [Example 34, 6-(2-Chlorophenyl)-1-(3-fluorophenyl)-5-hydroxy-3-methyl-1,7-dihydro-4H-pyrazolo[3,4-b]pyridin-4-one]: the inhibition at 1 µM turned out to be 100%, the inhibition at 10 µM came out at 100% and the negative logarithm of the IC50 (pIC50) is greater than 7.30.
On to `Cc1nn(-c2cccc(F)c2)c2[nH]c(-c3c(F)cccc3F)c(O)c(=O)c12` [Example 35, 6-(2,6-Difluorophenyl)-1-(3-fluorophenyl)-5-hydroxy-3-methyl-1,7-dihydro-4H-pyrazolo[3,4-b]pyridin-4-one], for which the inhibition at 1 µM was 100%, the inhibition at 10 µM came to 100% and the pIC50 is greater than 7.30.
For the compound `Cc1nn(-c2ccccn2)c2[nH]c(-c3c(F)cccc3F)c(O)c(=O)c12` [Example 36, 6-(2,6-Difluorophenyl)-5-hydroxy-3-methyl-1-(pyridin-2-yl)-1,7-dihydro-4H-pyrazolo[3,4-b]pyridin-4-one], the inhibition at 1 µM is 84.2%, the inhibition at 10 µM was determined as 100% and the pIC50 is less than 6.82.
Turning to `Cc1nn(-c2ccc(F)c(F)c2)c2[nH]c(-c3c(F)cccc3F)c(O)c(=O)c12` [Example 37, 6-(2,6-Difluorophenyl)-1-(3,4-difluorophenyl)-5-hydroxy-3-methyl-1,7-dihydro-4H-pyrazolo[3,4-b]pyridin-4-one], the inhibition at 1 µM turned out to be 100%, the inhibition at 10 µM is 100% and the pIC50 is 7.00 to 7.30.
As to `COc1ccc(-c2[nH]c3c(c(C)nn3-c3ccc(F)cc3)c(=O)c2O)c(F)c1` [Example 38, 6-(2-Fluoro-4-methoxyphenyl)-1-(4-fluorophenyl)-5-hydroxy-3-methyl-1,7-dihydro-4H-pyrazolo[3,4-b]pyridin-4-one], the inhibition at 1 µM was found to be 87.5%, the inhibition at 10 µM worked out at 86.1% and the negative-log IC50 (pIC50) was 6.82 to 7.00.
Regarding `COc1ccc(-c2[nH]c3c(c(C)nn3-c3ccc(F)c(F)c3)c(=O)c2O)c(F)c1` [Example 39, 1-(3,4-Difluorophenyl)-6-(2-fluoro-4-methoxyphenyl)-5-hydroxy-3-methyl-1,7-dihydro-4H-pyrazolo[3,4-b]pyridin-4-one], the inhibition at 1 µM is 85%, the inhibition at 10 µM amounted to 87.3% and the pIC50 was 6.82 to 7.00.
In the case of `Cn1nc(C(F)(F)F)c2c(=O)c(O)c(-c3ccccc3Cl)[nH]c21` [Example 40, 6-(2-Chlorophenyl)-5-hydroxy-1-methyl-3-(trifluoromethyl)-1,7-dihydro-4H-pyrazolo[3,4-b]pyridin-4-one], the inhibition at 1 µM amounted to 93.3%, the inhibition at 10 µM was 100% and the negative-log IC50 (pIC50) was greater than 7.30.
In the case of `Cn1nc(C(F)(F)F)c2c(=O)c(O)c(-c3ccccc3F)[nH]c21` [Example 41, 6-(2-Fluorophenyl)-5-hydroxy-1-methyl-3-(trifluoromethyl)-1,7-dihydro-4H-pyrazolo[3,4-b]pyridin-4-one], the inhibition at 1 µM was 77.7%, the inhibition at 10 µM worked out at 87.6% and the negative-log IC50 (pIC50) was less than 6.82.
As for `Cn1nc(C(F)(F)F)c2c(=O)c(O)c(-c3ccc(F)cc3)[nH]c21` [Example 42, 6-(4-Fluorophenyl)-5-hydroxy-1-methyl-3-(trifluoromethyl)-1,7-dihydro-4H-pyrazolo[3,4-b]pyridin-4-one], the inhibition at 1 µM was found to be 86.8%, the inhibition at 10 µM came out at 96.5% and the pIC50 was 6.82 to 7.00.
`Cn1nc(C(F)(F)F)c2c(=O)c(O)c(-c3ccc(Cl)cc3)[nH]c21` [Example 43, 6-(4-Chlorophenyl)-5-hydroxy-1-methyl-3-(trifluoromethyl)-1,7-dihydro-4H-pyrazolo[3,4-b]pyridin-4-one]: the inhibition at 1 µM was 90.6%, the inhibition at 10 µM is 97.9% and the negative-log IC50 (pIC50) was 6.82 to 7.00.
